Measurements reported in ChEMBL document CHEMBL3132774, “The advantage of biosensor analysis over enzyme inhibition studies for slow dissociating inhibitors characterization of hydroxamate-based matrix metalloproteinase-12 inhibitors” (Medchemcomm, 2013).

Assays:
[1] = molecular target: T1, Macrophage metalloelastase (Homo sapiens, UniProt P39900); test: Inhibition of human recombinant MMP12 using Mca-Pro-Leu-Gly-Leu-Dpa-Ala-Arg-NH2 as substrate incubated for 10 mins prior to substrate addition by spectrophotometry; details: read-out: Ki(app)
Target sequence in this assay (P39900 whole entry): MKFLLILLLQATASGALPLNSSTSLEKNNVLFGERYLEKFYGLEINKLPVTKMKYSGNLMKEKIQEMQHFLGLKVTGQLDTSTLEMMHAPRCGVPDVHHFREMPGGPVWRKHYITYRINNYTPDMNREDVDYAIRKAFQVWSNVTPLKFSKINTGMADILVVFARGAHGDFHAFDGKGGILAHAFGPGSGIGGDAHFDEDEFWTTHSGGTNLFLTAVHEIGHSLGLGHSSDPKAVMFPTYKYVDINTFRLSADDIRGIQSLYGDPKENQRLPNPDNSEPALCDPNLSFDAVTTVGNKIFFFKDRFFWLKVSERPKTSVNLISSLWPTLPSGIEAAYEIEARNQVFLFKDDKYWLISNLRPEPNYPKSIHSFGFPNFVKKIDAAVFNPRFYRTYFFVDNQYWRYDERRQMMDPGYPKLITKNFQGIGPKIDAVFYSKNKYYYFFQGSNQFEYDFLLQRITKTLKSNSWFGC

[2] = molecular target: T1, Macrophage metalloelastase; test: Time dependent inhibition of human recombinant MMP12 by progress curve enzyme inhibition assay; details: read-out: Ki(app)
Target sequence in this assay (P39900 whole entry): as above

[3] = molecular target: T1, Macrophage metalloelastase; test: Inhibition of human recombinant MMP12 by SPR assay
Target sequence in this assay (P39900 106-470 limits assumed): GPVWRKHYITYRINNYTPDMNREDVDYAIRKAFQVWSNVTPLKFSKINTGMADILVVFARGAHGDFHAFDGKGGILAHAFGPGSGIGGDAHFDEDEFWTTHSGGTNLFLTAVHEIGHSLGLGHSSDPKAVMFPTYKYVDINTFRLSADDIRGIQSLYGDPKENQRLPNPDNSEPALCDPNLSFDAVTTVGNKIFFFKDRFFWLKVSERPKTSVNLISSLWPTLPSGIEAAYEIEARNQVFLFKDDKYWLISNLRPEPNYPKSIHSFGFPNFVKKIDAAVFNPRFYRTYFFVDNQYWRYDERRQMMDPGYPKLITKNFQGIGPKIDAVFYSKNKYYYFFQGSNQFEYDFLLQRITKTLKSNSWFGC

SMILES | Ki [1] [nM] | Ki [2] [nM] | inhibition [3]
CCN(CC)Cc1cc(C)c(N(Cc2ccccc2)S(=O)(=O)c2ccc(OC)cc2)cc1C(=O)NO | 30 | 3.53 | 
CNC(=O)[C@H](Cc1ccccc1)NC(=O)[C@H](CCc1ccc(-c2cccnc2)cc1)CC(=O)O | 48 |  | Dose-dependent effect
CNC(=O)[C@H](Cc1c[nH]c2ccccc12)NC(=O)[C@@H](CC(=O)NO)CC(C)C [ILOMASTAT] | 3.8 | 0.52 | Dose-dependent effect
CNC(=O)[C@H](Cc1ccccc1)NC(=O)[C@H](CCc1ccc(-c2cccnc2)cc1)CC(=O)NO | 1 |  | 
COc1ccc(S(=O)(=O)N2CC(C)(C)CN(S(=O)(=O)c3ccc(OC)cc3)C2C(=O)NO)cc1 | 1.9 | 0.61 | 
